Active and inactive are the calls of the source.
Key:
CHO = CHO cell viability loss, potency – luminescence, cytotoxicity control for TLR9-MyD88 binding inhibitor project, dose response (AID 588339); format: functional, cell-based, hamster; details: Cricetulus griseus;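 further: CHO cells stably coexpressing TLR9 and MyD88 fusions from primary screen; compound exposure lasted 48 hours before viability readout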
Beta Lactamase = Beta Lactamase (Pseudomonas aeruginosa, UniProt Q932Y6); experiment: BLA reporter interference, concentration series – BLA reporter cells, FRET fluorescence, artefact control for TLR9-MyD88 binding inhibitor project, dose response (AID 588341); format: cell-based;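 further: cell based assay in CHO-K1 cells stably expressing beta-lactamase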
Sequence of Beta Lactamase (Q932Y6 whole entry): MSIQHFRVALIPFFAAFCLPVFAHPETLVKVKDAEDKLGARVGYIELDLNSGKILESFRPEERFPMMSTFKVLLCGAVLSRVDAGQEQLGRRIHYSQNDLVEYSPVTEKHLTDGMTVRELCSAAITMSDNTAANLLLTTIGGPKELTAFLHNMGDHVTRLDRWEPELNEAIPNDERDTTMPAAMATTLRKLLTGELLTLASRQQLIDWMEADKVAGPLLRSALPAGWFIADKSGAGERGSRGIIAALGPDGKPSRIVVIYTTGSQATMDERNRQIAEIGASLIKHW

Insulin-degrading enzyme [1] = target: T1, Insulin-degrading enzyme (Homo sapiens, UniProt P14735); experiment: recombinant IDE activation, cell-free – biochemical, fluorescence polarization, counter-screen for IDE activator project, dose response (AID 588681)
T1 sequence (P14735 whole entry): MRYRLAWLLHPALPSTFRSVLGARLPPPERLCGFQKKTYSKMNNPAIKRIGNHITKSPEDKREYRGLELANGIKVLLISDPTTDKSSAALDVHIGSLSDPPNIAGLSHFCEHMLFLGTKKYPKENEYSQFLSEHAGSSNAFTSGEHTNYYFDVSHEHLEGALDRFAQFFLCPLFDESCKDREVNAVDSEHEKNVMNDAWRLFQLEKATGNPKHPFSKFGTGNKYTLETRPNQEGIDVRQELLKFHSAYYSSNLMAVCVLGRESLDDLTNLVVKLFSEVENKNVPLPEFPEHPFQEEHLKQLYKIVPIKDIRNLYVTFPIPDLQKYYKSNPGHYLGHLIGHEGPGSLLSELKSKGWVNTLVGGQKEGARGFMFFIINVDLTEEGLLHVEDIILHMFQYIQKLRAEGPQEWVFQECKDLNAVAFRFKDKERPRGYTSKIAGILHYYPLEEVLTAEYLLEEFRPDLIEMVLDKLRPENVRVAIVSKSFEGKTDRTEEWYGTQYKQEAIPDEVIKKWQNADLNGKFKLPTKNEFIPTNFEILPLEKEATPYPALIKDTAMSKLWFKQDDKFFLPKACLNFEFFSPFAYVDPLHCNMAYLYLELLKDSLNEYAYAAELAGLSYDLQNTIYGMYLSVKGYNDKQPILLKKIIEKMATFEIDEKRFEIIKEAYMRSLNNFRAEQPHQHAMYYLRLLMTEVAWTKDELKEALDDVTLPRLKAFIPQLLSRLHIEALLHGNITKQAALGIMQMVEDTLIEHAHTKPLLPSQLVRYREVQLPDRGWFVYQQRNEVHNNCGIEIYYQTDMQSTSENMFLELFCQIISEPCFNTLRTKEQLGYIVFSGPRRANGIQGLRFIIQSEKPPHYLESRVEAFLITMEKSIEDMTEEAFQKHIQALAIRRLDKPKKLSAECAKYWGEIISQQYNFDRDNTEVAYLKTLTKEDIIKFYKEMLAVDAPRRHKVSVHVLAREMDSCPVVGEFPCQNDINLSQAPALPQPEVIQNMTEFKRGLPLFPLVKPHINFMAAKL

Insulin-degrading enzyme [2] = target: T1, Insulin-degrading enzyme; experiment: cellular IDE activation of Abeta substrate cleavage – fluorescence polarization, HEK cells, dose response (AID 588439); format: functional, cell-based
HEK293 [3] = experiment: optical interference in Abeta FP readout, dose response, artefact control for IDE activator project, biochemical, fluorescence polarization (AID 588442); format: functional, cell-based; details: Homo sapiens
HEK293 [4] = experiment: membrane integrity loss in HEK cells – cell-based, fluorescence, cytotoxicity control for IDE activator project, dose response (AID 588440); format: functional; details: Homo sapiens;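 further: cytotoxicity by LDH release measuring loss of membrane integrity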
[5] = target: T2, Corticotropin-releasing factor receptor 2/Corticotropin-releasing factor-binding protein (Homo sapiens, UniProt P24387+Q13324); experiment: activators of CRF receptor 2 with binding protein – uHTS hits, confirmation (AID 602473); format: functional; details: read-out: EC50_Mean
T2 sequence (Q13324 whole entry): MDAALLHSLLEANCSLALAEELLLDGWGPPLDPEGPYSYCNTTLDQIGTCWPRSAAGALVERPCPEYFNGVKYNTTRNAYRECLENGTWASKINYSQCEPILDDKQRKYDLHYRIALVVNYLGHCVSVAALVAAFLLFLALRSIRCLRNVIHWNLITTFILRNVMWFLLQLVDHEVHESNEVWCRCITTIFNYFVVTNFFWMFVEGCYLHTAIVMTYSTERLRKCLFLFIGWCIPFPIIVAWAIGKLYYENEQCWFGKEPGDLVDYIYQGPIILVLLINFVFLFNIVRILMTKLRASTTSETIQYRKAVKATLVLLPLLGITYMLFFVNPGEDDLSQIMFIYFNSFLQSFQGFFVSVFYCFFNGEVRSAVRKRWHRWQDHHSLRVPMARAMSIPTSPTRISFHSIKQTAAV
T2 sequence (P24387 whole entry): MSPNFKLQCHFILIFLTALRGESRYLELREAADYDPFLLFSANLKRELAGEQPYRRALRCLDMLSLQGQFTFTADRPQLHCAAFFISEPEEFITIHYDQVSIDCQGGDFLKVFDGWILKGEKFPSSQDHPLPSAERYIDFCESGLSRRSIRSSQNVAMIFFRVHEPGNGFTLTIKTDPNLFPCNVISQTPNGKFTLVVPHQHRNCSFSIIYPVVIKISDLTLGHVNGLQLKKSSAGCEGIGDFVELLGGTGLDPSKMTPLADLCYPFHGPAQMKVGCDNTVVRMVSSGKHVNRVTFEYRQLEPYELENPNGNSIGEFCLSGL

[6] = target: UDP-galactopyranose mutase (Mycobacterium tuberculosis, UniProt P9WIQ1); experiment: Inhibitors of Mycobacterium tuberculosis UDP-galactopyranose mutase (UGM) enzyme Measured in Biochemical System Using Plate Reader - 2105-02_Inhibitor_Dose_CherryPick_Activity. [Related pubchem assays (depositor defined):AID504439]
Sequence of UDP-galactopyranose mutase (P9WIQ1 whole entry): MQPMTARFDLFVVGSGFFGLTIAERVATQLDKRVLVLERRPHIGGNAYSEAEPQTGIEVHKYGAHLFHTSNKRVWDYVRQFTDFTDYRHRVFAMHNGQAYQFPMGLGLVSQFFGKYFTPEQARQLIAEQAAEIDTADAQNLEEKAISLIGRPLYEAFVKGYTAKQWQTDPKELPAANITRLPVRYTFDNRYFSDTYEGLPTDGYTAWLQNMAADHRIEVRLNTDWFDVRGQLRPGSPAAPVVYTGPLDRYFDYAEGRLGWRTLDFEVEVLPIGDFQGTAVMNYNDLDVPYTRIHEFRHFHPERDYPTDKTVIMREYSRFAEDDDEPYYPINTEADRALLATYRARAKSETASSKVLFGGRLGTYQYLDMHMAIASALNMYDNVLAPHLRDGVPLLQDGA

cells [7] = format: functional
[8] = target: Low molecular weight phosphotyrosine protein phosphatase (Homo sapiens, UniProt P24666); format: functional; details: read-out: IC50_Mean;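 further: Dose-response confirmation assay measuring inhibition of LMPTP enzyme activity by fluorescence intensity read-out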
Sequence of Low molecular weight phosphotyrosine protein phosphatase (P24666 whole entry): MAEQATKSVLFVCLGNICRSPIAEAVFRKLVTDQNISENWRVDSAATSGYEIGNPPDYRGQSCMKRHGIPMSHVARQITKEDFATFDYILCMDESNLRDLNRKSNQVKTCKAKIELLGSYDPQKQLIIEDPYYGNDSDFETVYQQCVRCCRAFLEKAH

H9c2 = experiment: cells; format: functional, cell-based; details: Rattus norvegicus, H9c2, Myocardium
Streptococcus = experiment: GAS UMAA2166 growth inhibition – luminescence, BacTiterGlo, counter-screen for streptokinase expression inhibitor project, dose response (AID 1915); format: functional, organism-based;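 further: potency for reduction of bacterial viability or growth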
[9] = THP-1 cell cytotoxicity, dose response, cytotoxicity control for non-replicating M. tuberculosis project (AID 489025); format: functional
[10] = test system: Streptococcus sp. 'group A'; experiment: Streptococcus pyogenes SK(-)GAS viability under kanamycin – luminescence, BacTiterGlo, confirmation, counter-screen for streptokinase expression inhibitor project, dose response (AID 1900); format: functional, organism-based
[11] = target: T3, Heat shock factor protein 1 (Mus musculus, UniProt P38532); experiment: decrease of HSF1-responsive luciferase luminescence – cell-based, NIH3T3, dose retest, confirmation (AID 2382); format: functional;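 further: NIH3T3 fibroblasts with HSF1-driven luciferase reporter stressed by proteasome inhibitor MG132; luminescence from HSF1-driven luciferase expression after 8 hours of MG132 stress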
T3 sequence (P38532 whole entry): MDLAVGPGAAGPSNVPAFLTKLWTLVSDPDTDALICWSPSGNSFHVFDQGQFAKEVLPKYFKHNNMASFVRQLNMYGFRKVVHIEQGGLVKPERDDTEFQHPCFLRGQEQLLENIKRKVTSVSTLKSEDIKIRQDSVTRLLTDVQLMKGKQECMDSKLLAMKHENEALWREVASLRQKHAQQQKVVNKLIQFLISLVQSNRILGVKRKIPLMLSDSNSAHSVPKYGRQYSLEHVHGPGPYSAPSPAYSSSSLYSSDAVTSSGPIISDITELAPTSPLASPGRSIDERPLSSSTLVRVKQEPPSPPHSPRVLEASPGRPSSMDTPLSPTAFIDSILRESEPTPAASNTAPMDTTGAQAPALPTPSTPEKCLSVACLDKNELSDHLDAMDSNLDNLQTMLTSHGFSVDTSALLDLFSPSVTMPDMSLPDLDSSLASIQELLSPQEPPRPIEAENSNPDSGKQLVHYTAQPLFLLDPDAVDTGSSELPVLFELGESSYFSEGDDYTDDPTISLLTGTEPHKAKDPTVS

INS1 = experiment: INS-1E survival protection against cytokine death – cell-based, luminescence, retest, dose response (AID 449756); format: functional; details: Rattus norvegicus;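 further: cell death triggered by IL-1 beta plus TNF-alpha plus IFN-gamma mixture; protective hits raise ATP signal compared with cytokine alone wells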
H4 = experiment: Luminescence Cell-Based Dose Response HTS to Identify Activators of 5'UTR Stem-Loop Driven Prion Protein mRNA Translation in H4 Neuroglioblastoma Cells. [Related pubchem assays: 1829 (Project Summary), 1814 (Primary HTS)]; format: functional; details: Homo sapiens
[12] = target: T4, Short transient receptor potential channel 4 (Mus musculus, UniProt Q9QUQ5); experiment: block of DAMGO-driven TRPC4 calcium entry – cell-based, HEK293 TRPC4/mu-opioid, Fluo-4 calcium, dose response (AID 434942); format: functional;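 further: potency of inhibitors blocking the TRPC4 calcium response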
T4 sequence (Q9QUQ5 whole entry): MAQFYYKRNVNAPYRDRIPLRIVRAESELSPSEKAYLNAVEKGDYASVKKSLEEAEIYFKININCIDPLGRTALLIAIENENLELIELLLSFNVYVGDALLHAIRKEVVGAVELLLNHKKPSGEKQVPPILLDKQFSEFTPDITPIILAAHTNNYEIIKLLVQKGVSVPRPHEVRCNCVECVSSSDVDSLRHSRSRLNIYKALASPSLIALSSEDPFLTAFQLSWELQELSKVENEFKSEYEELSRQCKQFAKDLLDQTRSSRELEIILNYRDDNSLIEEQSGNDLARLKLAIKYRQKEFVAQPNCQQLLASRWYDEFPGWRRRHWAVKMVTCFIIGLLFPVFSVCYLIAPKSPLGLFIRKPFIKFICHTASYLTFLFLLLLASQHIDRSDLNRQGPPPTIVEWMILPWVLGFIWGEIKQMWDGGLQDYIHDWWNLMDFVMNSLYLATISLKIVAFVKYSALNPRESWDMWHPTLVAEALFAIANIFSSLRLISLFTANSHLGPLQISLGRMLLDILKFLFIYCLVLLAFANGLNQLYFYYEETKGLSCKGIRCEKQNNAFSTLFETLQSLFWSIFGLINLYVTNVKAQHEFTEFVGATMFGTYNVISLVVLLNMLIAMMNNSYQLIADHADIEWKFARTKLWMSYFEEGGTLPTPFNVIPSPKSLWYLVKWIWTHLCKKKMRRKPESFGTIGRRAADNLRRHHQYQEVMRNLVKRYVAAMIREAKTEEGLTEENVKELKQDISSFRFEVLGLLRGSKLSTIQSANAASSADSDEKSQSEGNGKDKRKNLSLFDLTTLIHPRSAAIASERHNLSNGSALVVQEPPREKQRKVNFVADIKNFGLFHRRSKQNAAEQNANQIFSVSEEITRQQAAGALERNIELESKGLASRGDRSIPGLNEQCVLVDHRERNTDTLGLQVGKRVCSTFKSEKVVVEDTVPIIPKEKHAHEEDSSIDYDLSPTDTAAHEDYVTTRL

cells [13] = format: functional, cell-based
[14] = Counterscreen for activators of the function of SWI/SNF related, matrix associated, actin dependent regulator of chromatin, subfamily a, member 2 (SMARCA2, BRM): Luminescence-based cell-based high throughput dose response assay to identify non-selective compounds using the VP16 reporter assay.; format: functional
[15] = target: SWI/SNF-related matrix-associated actin-dependent regulator of chromatin subfamily A member 2 (Homo sapiens, UniProt P51531); experiment: Luminescence-based cell-based high throughput dose response assay to identify activators of the function of SWI/SNF related, matrix associated, actin dependent regulator of chromatin, subfamily a, member 2 (SMARCA2, BRM).; format: functional
Sequence of SWI/SNF-related matrix-associated actin-dependent regulator of chromatin subfamily A member 2 (P51531 whole entry): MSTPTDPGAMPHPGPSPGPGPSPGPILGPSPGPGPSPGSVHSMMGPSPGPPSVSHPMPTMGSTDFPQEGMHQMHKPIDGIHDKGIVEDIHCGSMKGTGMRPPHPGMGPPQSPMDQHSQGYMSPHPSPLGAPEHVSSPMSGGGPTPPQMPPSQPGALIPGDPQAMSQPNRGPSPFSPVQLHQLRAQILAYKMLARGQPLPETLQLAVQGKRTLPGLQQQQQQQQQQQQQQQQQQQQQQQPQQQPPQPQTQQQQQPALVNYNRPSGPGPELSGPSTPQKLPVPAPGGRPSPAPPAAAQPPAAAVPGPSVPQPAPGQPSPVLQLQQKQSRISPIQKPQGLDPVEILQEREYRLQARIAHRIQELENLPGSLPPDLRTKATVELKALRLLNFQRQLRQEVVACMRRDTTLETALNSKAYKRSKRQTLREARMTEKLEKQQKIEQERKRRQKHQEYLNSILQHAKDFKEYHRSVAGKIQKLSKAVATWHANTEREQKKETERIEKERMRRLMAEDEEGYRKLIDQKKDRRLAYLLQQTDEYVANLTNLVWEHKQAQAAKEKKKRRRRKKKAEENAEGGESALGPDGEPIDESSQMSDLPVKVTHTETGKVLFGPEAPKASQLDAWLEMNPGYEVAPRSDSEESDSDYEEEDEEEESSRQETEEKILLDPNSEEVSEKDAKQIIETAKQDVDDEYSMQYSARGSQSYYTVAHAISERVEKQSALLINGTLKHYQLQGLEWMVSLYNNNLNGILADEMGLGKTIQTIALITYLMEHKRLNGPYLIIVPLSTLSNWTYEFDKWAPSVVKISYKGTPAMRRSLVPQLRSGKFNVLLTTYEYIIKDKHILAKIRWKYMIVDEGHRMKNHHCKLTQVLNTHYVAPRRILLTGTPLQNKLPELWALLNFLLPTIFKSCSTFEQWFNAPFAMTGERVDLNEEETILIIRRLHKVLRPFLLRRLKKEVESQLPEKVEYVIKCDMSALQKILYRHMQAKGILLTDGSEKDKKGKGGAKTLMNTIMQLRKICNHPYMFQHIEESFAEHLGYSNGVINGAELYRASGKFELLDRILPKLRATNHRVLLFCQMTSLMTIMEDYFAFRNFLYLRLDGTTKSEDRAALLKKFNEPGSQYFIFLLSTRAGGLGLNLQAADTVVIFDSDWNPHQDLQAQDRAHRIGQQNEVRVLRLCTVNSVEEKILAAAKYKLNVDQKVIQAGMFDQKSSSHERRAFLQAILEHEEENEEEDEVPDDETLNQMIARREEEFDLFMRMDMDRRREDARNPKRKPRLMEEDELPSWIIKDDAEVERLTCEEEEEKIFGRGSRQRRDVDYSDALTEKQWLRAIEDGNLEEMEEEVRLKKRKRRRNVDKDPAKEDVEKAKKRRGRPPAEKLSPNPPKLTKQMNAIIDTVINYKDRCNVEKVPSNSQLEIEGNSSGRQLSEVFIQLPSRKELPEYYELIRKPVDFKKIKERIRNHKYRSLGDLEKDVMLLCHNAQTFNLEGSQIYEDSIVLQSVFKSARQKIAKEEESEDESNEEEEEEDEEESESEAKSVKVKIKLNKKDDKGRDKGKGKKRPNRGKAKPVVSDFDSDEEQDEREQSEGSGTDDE

[16] = Luminescence Cell-Based Dose Response HTS to Identify Activators of Luciferase Translation or Activity in H4 […] Cells. [Related pubchem assays: 1829 (Project Summary), 1814 (Primary HTS)]; format: functional
[17] = Luminescence Cell-Based Dose Confirmation HTS to Identify Activators of 5'UTR Stem-Loop Driven Alpha-Synuclein mRNA Translation in H4 Neuroglioblastoma Cells. [Related pubchem assays: 1829 (Project Summary), 1814 (Primary HTS)]; format: functional
[18] = target: DNA (cytosine-5)-methyltransferase 1 (Homo sapiens, UniProt P26358); experiment: inhibition of DNA methylation by DNMT1 – biochemical, fluorescent molecular beacon, confirmation (AID 602386); format: functional
Sequence of DNA (cytosine-5)-methyltransferase 1 (P26358 whole entry): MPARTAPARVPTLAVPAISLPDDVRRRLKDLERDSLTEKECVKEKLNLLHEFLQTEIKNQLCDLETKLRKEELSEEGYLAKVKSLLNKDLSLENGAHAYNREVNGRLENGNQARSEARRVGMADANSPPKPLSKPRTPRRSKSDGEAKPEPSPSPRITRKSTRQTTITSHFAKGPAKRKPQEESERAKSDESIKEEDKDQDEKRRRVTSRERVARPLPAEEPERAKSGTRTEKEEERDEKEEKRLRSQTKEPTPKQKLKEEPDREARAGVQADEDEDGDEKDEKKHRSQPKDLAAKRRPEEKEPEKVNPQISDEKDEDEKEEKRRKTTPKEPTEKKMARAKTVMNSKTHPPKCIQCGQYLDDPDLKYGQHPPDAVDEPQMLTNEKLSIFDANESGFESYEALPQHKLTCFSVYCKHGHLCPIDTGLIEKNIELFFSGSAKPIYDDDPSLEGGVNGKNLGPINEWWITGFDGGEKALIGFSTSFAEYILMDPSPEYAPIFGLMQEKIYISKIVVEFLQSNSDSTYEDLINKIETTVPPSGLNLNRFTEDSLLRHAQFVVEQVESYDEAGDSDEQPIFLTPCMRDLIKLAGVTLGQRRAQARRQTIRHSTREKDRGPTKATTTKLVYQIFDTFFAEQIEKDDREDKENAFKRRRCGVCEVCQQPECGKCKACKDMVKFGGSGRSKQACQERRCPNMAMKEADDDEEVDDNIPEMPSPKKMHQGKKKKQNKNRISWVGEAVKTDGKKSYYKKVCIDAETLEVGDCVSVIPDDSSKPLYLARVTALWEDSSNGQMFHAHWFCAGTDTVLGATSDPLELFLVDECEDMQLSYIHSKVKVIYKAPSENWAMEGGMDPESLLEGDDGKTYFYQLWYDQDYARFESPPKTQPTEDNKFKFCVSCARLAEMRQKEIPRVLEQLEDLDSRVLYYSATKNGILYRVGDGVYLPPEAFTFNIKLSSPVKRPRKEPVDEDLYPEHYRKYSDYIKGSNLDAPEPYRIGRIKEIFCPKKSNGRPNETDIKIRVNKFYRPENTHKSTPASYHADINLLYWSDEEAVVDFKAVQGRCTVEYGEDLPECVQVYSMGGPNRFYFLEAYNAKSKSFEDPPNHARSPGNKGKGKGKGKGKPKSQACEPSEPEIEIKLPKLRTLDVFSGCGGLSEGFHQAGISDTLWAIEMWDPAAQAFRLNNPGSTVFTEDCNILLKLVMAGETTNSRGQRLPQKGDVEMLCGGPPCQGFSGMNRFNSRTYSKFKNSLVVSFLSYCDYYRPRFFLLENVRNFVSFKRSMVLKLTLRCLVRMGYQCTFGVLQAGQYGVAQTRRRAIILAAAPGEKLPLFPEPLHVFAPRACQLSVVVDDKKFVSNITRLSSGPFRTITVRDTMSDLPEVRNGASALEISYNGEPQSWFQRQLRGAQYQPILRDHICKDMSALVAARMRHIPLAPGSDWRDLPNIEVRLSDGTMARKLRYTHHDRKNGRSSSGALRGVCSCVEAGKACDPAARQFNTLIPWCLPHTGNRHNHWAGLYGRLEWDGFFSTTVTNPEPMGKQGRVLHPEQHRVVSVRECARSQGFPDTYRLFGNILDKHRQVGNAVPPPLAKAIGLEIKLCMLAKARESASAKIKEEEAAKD

cells [19] = format: functional, cell-based; remark: listed apart in the source
[20] = NIH3T3 cell viability loss – ATP luminescence, mouse fibroblasts, counter-screen, dose response (AID 2010); format: functional, cell-based;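 further: cells exposed to compound for about 90 hours before reading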
[21] = Trypanosoma cruzi growth suppression in host cells – NIH3T3 host cells, beta-gal luminescence, confirmation (AID 2044); format: functional, cell-based;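 further: intracellular parasites grown in NIH/3T3 mouse fibroblasts as host cells; luminescent beta-galactosidase reporter signal from transgenic T. cruzi replicating inside host cells; inhibitors lower the luminescence signal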

## Nc1ccc2c(C(F)(F)F)cc(=O)oc2c1
CHO
  IC50: > 49.7 µM (inactive)
Beta Lactamase
  IC50: 4.77 µM (active)

## COCO/C=C(\NC(C)=O)c1ccccc1
Insulin-degrading enzyme [1]
  EC50: > 54.7 µM (inactive)
Insulin-degrading enzyme [2]
  EC50: > 54.7 µM (inactive)
HEK293 [3]
  EC50: > 56 µM (inactive)
HEK293 [4]
  IC50: > 89.3 µM (inactive)

## O=C(NC1CCCCC1)c1cccc2c1C(=O)c1ccc(N3CCC(Cc4ccccc4)CC3)cc1S2(=O)=O
CHO
  IC50: > 49.7 µM (inactive)
[5]
  EC50: 6.47 µM (active)
[6]
  AC50: 72.3 µM (active)
Beta Lactamase
  IC50: 3.87 µM (active)

## CCn1cc(C(=O)O)c(=O)c2cc(F)c(N3CCN(C(=S)NC(=O)c4ccccc4)CC3)cc21
Cells [7]
  IC50: 42.6 µM (active)
[8]
  IC50: 15.4 µM (active)

## O=c1c(O)c(-c2cccs2)oc2ccc(Cl)cc12
Insulin-degrading enzyme [1]
  EC50: > 54.7 µM (inactive)
Insulin-degrading enzyme [2]
  EC50: > 54.7 µM (inactive)
Cells [7]
  IC50: 13.8 µM (active)
H9c2
  IC50: > 79 µM (inactive)
Streptococcus
  EC50: 7.38 µM (active)
HEK293 [3]
  EC50: > 54.7 µM (inactive)
[9]
  CC50: > 40 µM (active)
[10]
  EC50: 2.11 µM (active)
HEK293 [4]
  IC50: > 89.2 µM (inactive)

## COc1ccc(/C=C(\C#N)C(=O)Nc2cc(C)c(Cl)cc2OC)cc1O
Insulin-degrading enzyme [1]
  EC50: > 54.7 µM (inactive)
Insulin-degrading enzyme [2]
  EC50: > 54.7 µM (inactive)
HEK293 [3]
  EC50: > 55.9 µM (inactive)
[11]
  EC50: > 195 µM (not active)
HEK293 [4]
  IC50: 12.6 µM (inactive)

## CCN(CC)CCn1c2ccccc2c2cnc(N)c(C#N)c21
INS1
  AC50: 3.09 µM (active)
H4
  EC50: > 120 µM (not active)
[12]
  EC50: 4.73 µM (active)
Cells [13]
  EC50: > 350 µM (not active)
[14]
  EC50: > 91.2 µM (inactive)
[15]
  EC50: > 3.38 µM (active)
[16]
  EC50: 21 µM (active)
[17]
  EC50: 10.2 µM (active)
[18]
  IC50: > 99 µM (inactive)
Cells [19]
  EC50: > 350 µM (not active)
[20]
  EC50: 9.47 µM (active)
[21]
  EC50: 1.21 µM (active)

Source: ChEMBL document CHEMBL1201862, “PubChem BioAssay data set” (2004)
